Common to all, as to assay: AK assay 384-well format, Prestwick library screening
Test [1] deals with S. aureus strain USA300-0114. In kind it is cell-based, Staphylococcus aureus. Conditions: 50 μM final drug concentration; for fold induction at 50 µM: Staphylococcus aureus, USA300, 3 h.
Another test relates to P. aeruginosa. It is filed as cell-based, Pseudomonas aeruginosa. Conditions: 50 μM final drug concentration; for fold induction at 50 µM: Pseudomonas aeruginosa, 3 h.
The next test has as its system K. pneumoniae. It is filed as cell-based, Klebsiella pneumoniae. Conditions: 50 μM final drug concentration; for fold induction at 50 µM: Klebsiella pneumoniae, 3 h.
A further test deals with E. faecium. It is filed as cell-based, Enterococcus faecium. The note with it: 50 μM final drug concentration; for fold induction at 50 µM: Enterococcus faecium, 3 h.
Test [2] deals with A. baumannii strain 98-37-09. It is filed as cell-based, Acinetobacter baumannii. The note with it: 50 μM final drug concentration; for fold induction at 50 µM: Acinetobacter baumannii, 983709, 3 h.
The subject of a further test is E. cloacae. It is filed as cell-based, Enterobacter cloacae. Conditions: 50 μM final drug concentration; for fold induction at 50 µM: Enterobacter cloacae, 3 h.
The test system of a further test is E. coli. It is filed as cell-based, Escherichia coli. The note with it: 50 μM final drug concentration; for fold induction at 50 µM: Escherichia coli, 3 h.
The mark [3] stands for this setting: planktonic S. aureus, 384-well, cutoff for positive-scoring molecules 3-fold increase, read-out: AK-based Prestwick Library Screening Results: S. aureus (increase in extracellular AK activity).
[4] abbreviates: planktonic P. aeruginosa, 384-well, cutoff for positive-scoring molecules 3-fold increase, read-out: AK-based Prestwick Library Screening Results: P. aeruginosa (increase in extracellular AK activity).
Setting [5] is: planktonic K. pneumoniae, 384-well, cutoff for positive-scoring molecules 3-fold increase, read-out: AK-based Prestwick Library Screening Results: K. pneumoniae (increase in extracellular AK activity).
The mark [6] stands for this setting: planktonic E. faecium, 384-well, cutoff for positive-scoring molecules 3-fold increase, read-out: AK-based Prestwick Library Screening Results: E. faecium (increase in extracellular AK activity).
The mark [7] stands for this setting: planktonic A. baumannii, 384-well, cutoff for positive-scoring molecules 3-fold increase, read-out: AK-based Prestwick Library Screening Results: A. baumannii (increase in extracellular AK activity).
[8] abbreviates: planktonic E. cloacae, 384-well, cutoff for positive-scoring molecules 3-fold increase, read-out: AK-based Prestwick Library Screening Results: E. cloacae (increase in extracellular AK activity).
Setting [9] is: planktonic E. coli, 384-well, cutoff for positive-scoring molecules 3-fold increase, read-out: AK-based Prestwick Library Screening Results: E. coli (increase in extracellular AK activity).

The text below walks through data of patent publication US10004701B2, “Methods and compositions for treating infection” (UNIVERSITY OF ROCHESTER, priority 2012, dated 2018).

Read-outs that look alike come from different tables or passages of the source.

As for Isoetharine mesylate salt, in test [1] (planktonic, […]), the “AK-based Prestwick Library Screening Results, S. aureus (fold increase in extracellular AK activity)” value is reported as 0.6. The “AK-based Prestwick Library Screening Results, P. aeruginosa (fold increase in extracellular AK activity)” value with P. aeruginosa (planktonic, […]) was 0.6. Besides, in the test on K. pneumoniae (planktonic, […]), the “AK-based Prestwick Library Screening Results, K. pneumoniae (fold increase in extracellular AK activity)” value is listed as 1.4. Further, the “AK-based Prestwick Library Screening Results, E. faecium (fold increase in extracellular AK activity)” value in the test with E. faecium (planktonic, […]) is 0.9. Besides, the “AK-based Prestwick Library Screening Results, A. baumannii (fold increase in extracellular AK activity)” value in test [2] (planktonic, […]) was 0.8. Besides, the “AK-based Prestwick Library Screening Results, E. cloacae (fold increase in extracellular AK activity)” value in the test with E. cloacae (planktonic, […]) came to 0.9. The “AK-based Prestwick Library Screening Results, E. coli (fold increase in extracellular AK activity)” value with E. coli (planktonic, […]) stood at 0.9.

Take `CC1=C(C(=O)O)N2C(=O)[C@@H](NC(=O)[C@H](N)c3ccccc3)[C@H]2SC1` [Cephalexin monohydrate]: the fold induction at 50 µM in test [1] (planktonic S. aureus, cutoff for positive-scoring molecules 3-fold increase, read-out: AK-based Prestwick Library Screening Results, S. aureus (increase in extracellular AK activity)) stood at 0.7; in the test on P. aeruginosa (planktonic P. aeruginosa, cutoff for positive-scoring molecules 3-fold increase, read-out: AK-based Prestwick Library Screening Results, P. aeruginosa (increase in extracellular AK activity)) it was 0.8; with K. pneumoniae (planktonic K. pneumoniae, cutoff for positive-scoring molecules 3-fold increase, read-out: AK-based Prestwick Library Screening Results, K. pneumoniae (increase in extracellular AK activity)), 0.7; in the test on E. faecium (planktonic E. faecium, cutoff for positive-scoring molecules 3-fold increase, read-out: AK-based Prestwick Library Screening Results, E. faecium (increase in extracellular AK activity)) it was 0.9; in test [2] (planktonic A. baumannii, cutoff for positive-scoring molecules 3-fold increase, read-out: AK-based Prestwick Library Screening Results, A. baumannii (increase in extracellular AK activity)), 0.9; with E. cloacae (planktonic E. cloacae, cutoff for positive-scoring molecules 3-fold increase, read-out: AK-based Prestwick Library Screening Results, E. cloacae (increase in extracellular AK activity)), 1.4. Moreover, in the test on E. coli (planktonic E. coli, cutoff for positive-scoring molecules 3-fold increase, read-out: AK-based Prestwick Library Screening Results, E. coli (increase in extracellular AK activity)), the fold induction at 50 µM is 0.8.

In the case of Bromocryptine mesylate, the “AK-based Prestwick Library Screening Results, S. aureus (increase in extracellular AK activity)” value in test [1] (384-well format, […]) came out at 0.6. Further, the “AK-based Prestwick Library Screening Results, P. aeruginosa (increase in extracellular AK activity)” value in the test with P. aeruginosa (384-well format, […]) was 1.1. Besides, the “AK-based Prestwick Library Screening Results, K. pneumoniae (increase in extracellular AK activity)” value with K. pneumoniae (384-well format, […]) worked out at 1.1. Moreover, the “AK-based Prestwick Library Screening Results, E. faecium (increase in extracellular AK activity)” value in the test with E. faecium (384-well format, […]) is on record as 0.9. In test [2] (384-well format, […]), the “AK-based Prestwick Library Screening Results, A. baumannii (increase in extracellular AK activity)” value stood at 1.4. Besides, the “AK-based Prestwick Library Screening Results, E. cloacae (increase in extracellular AK activity)” value with E. cloacae (384-well format, […]) amounted to 1.4. The “AK-based Prestwick Library Screening Results, E. coli (increase in extracellular AK activity)” value in the test on E. coli (384-well format, […]) stood at 1.3.

`CCc1cc(C(N)=S)ccn1` [Ethionamide]: the fold induction at 50 µM came out at 1.3 in test [1] (planktonic, cutoff for positive 3-fold increase, read-out: AK-based Prestwick Library Screening Results, S. aureus (fold increase in extracellular AK activity)); 1.1 with P. aeruginosa (planktonic, cutoff for positive 3-fold increase, read-out: AK-based Prestwick Library Screening Results, P. aeruginosa (fold increase in extracellular AK activity)); 1 with K. pneumoniae (planktonic, cutoff for positive 3-fold increase, read-out: AK-based Prestwick Library Screening Results, K. pneumoniae (fold increase in extracellular AK activity)); 1 in the test with E. faecium (planktonic, cutoff for positive 3-fold increase, read-out: AK-based Prestwick Library Screening Results, E. faecium (fold increase in extracellular AK activity)); 1.2 in test [2] (planktonic, cutoff for positive 3-fold increase, read-out: AK-based Prestwick Library Screening Results, A. baumannii (fold increase in extracellular AK activity)); 1.4 in the test on E. cloacae (planktonic, cutoff for positive 3-fold increase, read-out: AK-based Prestwick Library Screening Results, E. cloacae (fold increase in extracellular AK activity)). Moreover, in the test on E. coli (planktonic, cutoff for positive 3-fold increase, read-out: AK-based Prestwick Library Screening Results, E. coli (fold increase in extracellular AK activity)), the fold induction at 50 µM turned out to be 1.1.

`CN(C)[C@@H]1C(O)=C(C(N)=O)C(=O)[C@@]2(O)C(O)=C3C(=O)c4c(O)cccc4[C@@](C)(O)[C@H]3[C@H](O)[C@@H]12` [Oxytetracycline dihydrate]: the fold induction at 50 µM in test [1] (setting [3]) was found to be 3.4; in the test on P. aeruginosa (setting [4]) it was 0.5; with K. pneumoniae (setting [5]), 0.2; with E. faecium (setting [6]) it was 0.9; in test [2] (setting [7]), 5.3; in the test on E. cloacae (setting [8]), 1.1. For the same compound, the fold induction at 50 µM in the test on E. coli (setting [9]) amounted to 1.

On to `C=CCOC(Cn1ccnc1)c1ccc(Cl)cc1Cl` (stereo not drawn) [Enilconazole], for which the fold induction at 50 µM in test [1] (cutoff for positive-scoring molecules 3-fold increase, read-out: AK-based Prestwick Library Screening Results, S. aureus (fold increase in extracellular AK activity)) was found to be 0.4; in the test on P. aeruginosa (cutoff for positive-scoring molecules 3-fold increase, read-out: AK-based Prestwick Library Screening Results, P. aeruginosa (fold increase in extracellular AK activity)), 0.4; in the test on K. pneumoniae (cutoff for positive-scoring molecules 3-fold increase, read-out: AK-based Prestwick Library Screening Results, K. pneumoniae (fold increase in extracellular AK activity)) it was 0.5; in the test with E. faecium (cutoff for positive-scoring molecules 3-fold increase, read-out: AK-based Prestwick Library Screening Results, E. faecium (fold increase in extracellular AK activity)), 1.1; in test [2] (cutoff for positive-scoring molecules 3-fold increase, read-out: AK-based Prestwick Library Screening Results, A. baumannii (fold increase in extracellular AK activity)) it was 0.4; in the test on E. cloacae (cutoff for positive-scoring molecules 3-fold increase, read-out: AK-based Prestwick Library Screening Results, E. cloacae (fold increase in extracellular AK activity)), 0.4. For the same compound, the fold induction at 50 µM in the test on E. coli (cutoff for positive-scoring molecules 3-fold increase, read-out: AK-based Prestwick Library Screening Results, E. coli (fold increase in extracellular AK activity)) was determined as 0.5.

`NC(=O)N1c2ccccc2C=Cc2ccccc21` [Carbamazepine]: the fold induction at 50 µM was 1 in test [1] (setting [3]); 1 with P. aeruginosa (setting [4]); 0.9 in the test with K. pneumoniae (setting [5]); 0.8 with E. faecium (setting [6]); 0.9 in test [2] (setting [7]); 1.5 with E. cloacae (setting [8]). Besides, the fold induction at 50 µM with E. coli (setting [9]) came out at 1.

Consider `CC(=O)OCC1=C(C(=O)O)N2C(=O)[C@@H](N)[C@H]2SC1` [Cephalosporanic acid, 7-amino], for which the “AK-based Prestwick Library Screening Results, S. aureus (increase in extracellular AK activity)” value in test [1] (planktonic S. aureus, […]) is listed as 0.6. Moreover, the “AK-based Prestwick Library Screening Results, P. aeruginosa (increase in extracellular AK activity)” value with P. aeruginosa (planktonic P. aeruginosa, […]) is recorded as 0.8. The “AK-based Prestwick Library Screening Results, K. pneumoniae (increase in extracellular AK activity)” value in the test with K. pneumoniae (planktonic K. pneumoniae, […]) was 0.7. The “AK-based Prestwick Library Screening Results, E. faecium (increase in extracellular AK activity)” value in the test with E. faecium (planktonic E. faecium, […]) amounted to 0.9. The “AK-based Prestwick Library Screening Results, A. baumannii (increase in extracellular AK activity)” value in test [2] (planktonic A. baumannii, […]) is 0.8. Further, in the test on E. cloacae (planktonic E. cloacae, […]), the “AK-based Prestwick Library Screening Results, E. cloacae (increase in extracellular AK activity)” value is given as 0.8. Further, in the test on E. coli (planktonic E. coli, […]), the “AK-based Prestwick Library Screening Results, E. coli (increase in extracellular AK activity)” value was determined as 0.9.

As to `COc1ccc2cc1Oc1ccc(cc1)C[C@H]1c3cc(c(OC)cc3CCN1C)Oc1c(OC)c(OC)cc3c1[C@H](C2)N(C)CC3` [Tetrandrine], the fold induction at 50 µM in test [1] (planktonic, cutoff for positive-scoring molecules 3-fold increase, read-out: AK-based Prestwick Library Screening Results, S. aureus (fold increase in extracellular AK activity)) was 0.9; in the test with P. aeruginosa (planktonic, cutoff for positive-scoring molecules 3-fold increase, read-out: AK-based Prestwick Library Screening Results, P. aeruginosa (fold increase in extracellular AK activity)) it was 0.9; with K. pneumoniae (planktonic, cutoff for positive-scoring molecules 3-fold increase, read-out: AK-based Prestwick Library Screening Results, K. pneumoniae (fold increase in extracellular AK activity)), 0.9; with E. faecium (planktonic, cutoff for positive-scoring molecules 3-fold increase, read-out: AK-based Prestwick Library Screening Results, E. faecium (fold increase in extracellular AK activity)), 1; in test [2] (planktonic, cutoff for positive-scoring molecules 3-fold increase, read-out: AK-based Prestwick Library Screening Results, A. baumannii (fold increase in extracellular AK activity)), 0.9; in the test with E. cloacae (planktonic, cutoff for positive-scoring molecules 3-fold increase, read-out: AK-based Prestwick Library Screening Results, E. cloacae (fold increase in extracellular AK activity)) it was 1.1. Moreover, the fold induction at 50 µM in the test with E. coli (planktonic, cutoff for positive-scoring molecules 3-fold increase, read-out: AK-based Prestwick Library Screening Results, E. coli (fold increase in extracellular AK activity)) stood at 0.9.
